{"source": "patent US9635859B2", "about": "“Pesticidal compositions and processes related thereto” (Dow AgroSciences LLC, priority 2012, dated 2017)", "tested_on": "Corn Earworm (Helicoverpa zea)", "experiment": "Bioassays on CEW, 128-well diet tray assay", "format": "in vivo", "conditions": "percent mortality, second instar larvae, 50 μg/cm^2 on artificial diet, five to seven days, 25° C.; Table 3", "protocol": "Certain molecules disclosed in this document were tested against BAW and CEW and CL using procedures described in the following examples. In the reporting of the results, the “BAW & CEW & CL Rating Table” was used (See Table Section).\nBioassays on CEW (Helicoverpa zea)\nBioassays on CEW were conducted using a 128-well diet tray assay. one to five second instar CEW larvae were placed in each well (3 mL) of the diet tray that had been previously filled with 1 mL of artificial diet to which 50 μg/cm^2 of the test compound (dissolved in 50 μL of 90:10 acetone-water mixture) had been applied (to each of eight wells) and then allowed to dry. Trays were covered with a clear self-adhesive cover, and held at 25° C., 14:10 light-dark for five to seven days. Percent mortality was recorded for the larvae in each well; activity in the eight wells was then averaged. The results are indicated in the table entitled “Table 3: Assay Results” (See Table Section)."}
{"smiles": "O=C(NCc1ccc(/C=C/C(c2cc(Cl)c(Cl)c(Cl)c2)C(F)(F)F)cc1Cl)Oc1ccccc1Cl", "note": "(stereo not shown) [CC40]", "values": [{"measurement": "CEW Rating", "value": "A (50-100)"}]}
